Reference: patent publication US6166063A, “N-(substituted glycyl)-2-cyanopyrrolidines, pharmaceutical compositions containing them and their use in inhibiting dipeptidyl peptidase-IV” (Novartis AG, priority 1999, dated 2000)
pIC50: −log10 of the molar value.

Legend:
[1] = target: human plasma DPP-IV (Homo sapiens, UniProt P27487); assay: DPP-IV inhibition in human plasma; format: biochemical; conditions: substrate H-Glycine-Proline-AMC, pH 7.8, room temperature, 8-point curve
Experimental: (§1) Briefly, 5 μl of plasma are added to 96-well flat-bottom microtiter plates (Falcon), followed by the addition of 5 μl of 80 mM MgCl2 in incubation buffer (25 mMHEPES, 140 mM NaCl, 1% RIA-grade BSA, pH 7.8). After a 60 min. incubation at room temperature, the reaction is initiated by the addition of 10 μl of incubation buffer containing 0.1 mM substrate (H-Glycine-Proline-AMC;AMC is 7-amino-4-methylcoumarin). The plates are covered with aluminum foil (or kept in the dark) and incubated at room temperature for 20 min. […] A fluorescence-concentration curve of free AMC is generated using 0-50 μM solutions of AMC in assay buffer. The curve generated is linear and is used for interpolation of substrate consumption (catalytic activity in nmoles substrate cleaved/min). As with the previous assay, the potency of the test compounds as DPP-IV inhibitors, expressed as IC50, is calculated from 8-point, dose-response curves using a 4 parameter logistic function.

[2] = target: rat plasma DPP-IV (Rattus norvegicus, UniProt P14740); assay: DPP-IV inhibition in rat plasma
Experimental: as §1

[3] = tested on: insulin resistant rats; assay: Early insulin response to an oral glucose challenge in insulin resistant rats; format: in vivo, Male Sprague-Dawley rats; conditions: 10 μmol/kg oral in CMC, 30 min before oral glucose 1 g/kg; high fat diet rats; % increase of the mean of the control animals
Experimental: Male Sprague-Dawley rats that had been fed a high fat diet (saturated fat=57% calories) for 2-3 weeks were fasted for approximately 2 hours on the day of testing, divided into groups of 8-10, and dosed orally with 10 μmol/kg of the test compounds in CMC. An oral glucose bolus of 1 g/kg was administered 30 minutes after the test compound directly into the stomach of the test animals. Blood samples, obtained at various timepoints from chronic jugular vein catheters, were analyzed for plasma glucose and immunoreactive insulin (IRI) concentrations, and plasma DPP-IV activity. Plasma insulin levels were assayed by a double antibody radioimmunoassay (RIA) method using a specific anti-rat insulin antibody from Linco Research (St. Louis, Mo.). The RIA has a lower limit of detection of 0.5 μU/mL with intra- and inter-assay variations of less than 5%. Data are expressed as % increase of the mean of the control animals. Upon oral administration, each of the compounds tested amplified the early insulin response which led to an improvement in glucose tolerance in the insulin resistant test animals.

rat plasma DPP-IV, sequence (P14740 37-767 limits assumed): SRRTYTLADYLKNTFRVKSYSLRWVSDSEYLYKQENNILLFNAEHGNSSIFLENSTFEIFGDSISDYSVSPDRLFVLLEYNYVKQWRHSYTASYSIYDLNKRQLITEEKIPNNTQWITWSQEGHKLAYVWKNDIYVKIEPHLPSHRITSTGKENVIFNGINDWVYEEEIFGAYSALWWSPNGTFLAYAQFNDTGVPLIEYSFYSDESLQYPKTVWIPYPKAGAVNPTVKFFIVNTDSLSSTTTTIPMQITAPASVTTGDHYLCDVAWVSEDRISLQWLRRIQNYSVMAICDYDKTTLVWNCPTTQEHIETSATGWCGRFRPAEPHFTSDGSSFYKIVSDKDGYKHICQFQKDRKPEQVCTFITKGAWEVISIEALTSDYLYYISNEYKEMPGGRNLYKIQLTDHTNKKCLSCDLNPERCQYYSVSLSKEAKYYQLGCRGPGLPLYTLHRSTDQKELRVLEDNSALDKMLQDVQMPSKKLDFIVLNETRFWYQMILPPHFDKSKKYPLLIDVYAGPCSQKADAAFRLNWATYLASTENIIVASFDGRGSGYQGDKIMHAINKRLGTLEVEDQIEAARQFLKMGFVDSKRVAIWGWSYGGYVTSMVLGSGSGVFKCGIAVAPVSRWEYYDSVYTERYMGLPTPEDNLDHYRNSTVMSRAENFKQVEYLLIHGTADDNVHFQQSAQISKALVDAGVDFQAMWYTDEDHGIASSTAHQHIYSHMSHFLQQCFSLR
human plasma DPP-IV, sequence (P27487 39-766 limits assumed): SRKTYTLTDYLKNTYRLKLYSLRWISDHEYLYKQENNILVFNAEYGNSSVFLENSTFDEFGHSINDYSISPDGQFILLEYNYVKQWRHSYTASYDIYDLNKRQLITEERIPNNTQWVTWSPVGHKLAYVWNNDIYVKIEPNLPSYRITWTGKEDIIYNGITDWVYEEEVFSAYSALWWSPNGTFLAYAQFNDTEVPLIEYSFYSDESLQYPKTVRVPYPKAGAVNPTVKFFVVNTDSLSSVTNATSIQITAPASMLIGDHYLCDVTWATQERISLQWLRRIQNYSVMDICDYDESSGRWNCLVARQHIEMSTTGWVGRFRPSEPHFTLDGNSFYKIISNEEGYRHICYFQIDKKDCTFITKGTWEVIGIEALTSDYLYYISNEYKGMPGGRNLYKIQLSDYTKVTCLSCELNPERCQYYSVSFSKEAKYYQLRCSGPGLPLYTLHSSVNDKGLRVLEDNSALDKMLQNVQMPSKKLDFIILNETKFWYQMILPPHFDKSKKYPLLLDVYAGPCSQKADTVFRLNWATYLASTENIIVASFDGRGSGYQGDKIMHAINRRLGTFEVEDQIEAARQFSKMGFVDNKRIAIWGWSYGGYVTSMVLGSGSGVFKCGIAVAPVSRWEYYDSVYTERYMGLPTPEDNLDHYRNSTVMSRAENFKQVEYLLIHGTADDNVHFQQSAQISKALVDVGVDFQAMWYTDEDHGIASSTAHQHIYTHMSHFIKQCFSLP

Compound | pIC50 [1] | pIC50 [2] | Increase of Insulin Response [3]
N#C[C@@H]1CCCN1C(=O)CNC1C2CC3CC1CC(O)(C3)C2 (stereo partly drawn) [Ex. 8, Pyrrolidine, 1-[[(5-hydroxy-2-adamantyl)amino]-acetyl]-2-cyano-, (S)-] | 8.22 | 7.92 | 
N#C[C@@H]1CCCN1C(=O)CNC12CC3CC(CC(O)(C3)C1)C2 [Ex. 1, Pyrrolidine, 1-[(3-hydroxy-1-adamantyl)amino]acetyl-2-cyano-, (S)] |  |  | 64%
